“And” between values parts separate entries of the source, which are not always exact repeats. Equal values may be shown once. Toxic doses and inconclusive results are not listed. No stated cut-off is given here; in the data, active means T/C of 150% or more; inactive means T/C below 125%. Square brackets hold non-standard residues; d marks the D form. Peptide text beside a SMILES is read from it. ξ: configuration not given here. ξI = CCC(C)C(N)C(=O)O
Test system: L1210 leukemia ip in BDF1 mice, survival T/C
Assay: NCI In Vivo Anticancer Drug Screen. Data for tumor model L1210 Leukemia (intraperitoneal) in B6D2F1 (BDF1) mice
Conditions: endpoint: mean survival time, higher = longer survival
Summary of the method: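 In this screen, tumor-bearing mice given compound are compared to those given vehicle, and their survival values are reported as a treated-to-control quotient.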

[1] = dose: 100.0 mg/kg/injection, schedule: Q04DX002 (ip), vehicle: Klucel (hydroxypropylcellulose) (HPC)
[2] = dose: 200.0 mg/kg/injection, schedule: Q04DX002 (ip), vehicle: Klucel (hydroxypropylcellulose) (HPC)
[3] = dose: 400.0 mg/kg/injection, schedule: Q04DX002 (ip), vehicle: Klucel (hydroxypropylcellulose) (HPC)
[4] = dose: 100.0 mg/kg/injection, schedule: Q01DX001 (ip), vehicle: carboxymethylcellulose (CMC)
[5] = dose: 200.0 mg/kg/injection, schedule: Q01DX001 (ip), vehicle: carboxymethylcellulose (CMC)
[6] = dose: 400.0 mg/kg/injection, schedule: Q01DX001 (ip), vehicle: carboxymethylcellulose (CMC)
[7] = dose: 100.0 mg/kg/injection, schedule: Q04DX003 (ip), vehicle: saline
[8] = dose: 100.0 mg/kg/injection, schedule: Q01DX009 (ip), vehicle: saline with Tween-80
[9] = dose: 200.0 mg/kg/injection, schedule: Q01DX009 (ip), vehicle: saline with Tween-80
[10] = dose: 50.0 mg/kg/injection, schedule: Q01DX009 (ip), vehicle: saline with Tween-80
[11] = dose: 100.0 mg/kg/injection, schedule: Q04DX003 (ip), vehicle: saline with Tween-80
[12] = dose: 200.0 mg/kg/injection, schedule: Q04DX003 (ip), vehicle: saline with Tween-80
[13] = dose: 100.0 mg/kg/injection, schedule: Q01DX009 (ip), vehicle: Klucel (hydroxypropylcellulose) (HPC)
[14] = dose: 100.0 mg/kg/injection, schedule: Q04DX003 (ip), vehicle: Klucel (hydroxypropylcellulose) (HPC)
[15] = dose: 200.0 mg/kg/injection, schedule: Q01DX009 (ip), vehicle: Klucel (hydroxypropylcellulose) (HPC)
[16] = dose: 200.0 mg/kg/injection, schedule: Q04DX003 (ip), vehicle: Klucel (hydroxypropylcellulose) (HPC)
[17] = dose: 400.0 mg/kg/injection, schedule: Q01DX009 (ip), vehicle: Klucel (hydroxypropylcellulose) (HPC)
[18] = dose: 400.0 mg/kg/injection, schedule: Q04DX003 (ip), vehicle: Klucel (hydroxypropylcellulose) (HPC)
[19] = dose: 100.0 mg/kg/injection, schedule: Q04DX002 (ip), vehicle: saline with Tween-80
[20] = dose: 200.0 mg/kg/injection, schedule: Q04DX002 (ip), vehicle: saline with Tween-80
[21] = dose: 200.0 mg/kg/injection, schedule: Q04DX003 (ip), vehicle: saline
[22] = dose: 400.0 mg/kg/injection, schedule: Q04DX002 (ip), vehicle: saline with Tween-80
[23] = dose: 400.0 mg/kg/injection, schedule: Q04DX003 (ip), vehicle: saline
[24] = dose: 75.0 mg/kg/injection, schedule: Q01DX001 (ip), vehicle: saline

Measured: T/C

O=C(/C=C/c1ccccc1)c1ccc([N+](=O)[O-])cc1
inactive: [1] 94 % of control | [2] 94 % of control | [3] 108 % of control

OCC1CCCC1
inactive: dose: 50.0 mg/kg/injection, schedule: Q01DX001 (ip), vehicle: carboxymethylcellulose (CMC) 92 % of control | [4] 94 % of control | [5] 92 % of control | [6] 94 % of control

CC(C)NC(=O)CCl
inactive: dose: 25.0 mg/kg/injection, schedule: Q01DX009 (ip), vehicle: saline 96 % of control | dose: 25.0 mg/kg/injection, schedule: Q04DX003 (ip), vehicle: saline 90 % of control | dose: 50.0 mg/kg/injection, schedule: Q01DX009 (ip), vehicle: saline 91 % of control | dose: 50.0 mg/kg/injection, schedule: Q04DX003 (ip), vehicle: saline 92 % of control | dose: 100.0 mg/kg/injection, schedule: Q01DX009 (ip), vehicle: saline 98 % of control | [7] 102 % of control and 92 % of control

CCCCOC(=O)C(C)OC(=O)Nc1cccc(Cl)c1 (stereo not given)
inactive: [8] 93 % of control | [9] 95 % of control | dose: 400.0 mg/kg/injection, schedule: Q01DX009 (ip), vehicle: saline with Tween-80 90 % of control

CC1(c2ccc3ccccc3c2)OCC2(CCC2)CO1
inactive: [1] 97 % of control | [3] 107 % of control

C#CCCC#C
inactive: [10] 104 % of control | [8] 109 % of control | [11] 103 % of control | [9] 102 % of control | [12] 104 % of control

CCCCCCCCCCCCCCCCCCOC(=O)Cc1ccc(N(CCCl)CCCl)cc1
inactive: [13] 105 % of control | [14] 100 % of control | [15] 110 % of control | [16] 109 % of control | [17] 115 % of control | [18] 105 % of control

COC(=O)c1ccccc1NC(=O)Nc1ccc(F)cc1
inactive: [13] 90 % of control | [15] 90 % of control | [17] 90 % of control

O=[N+]([O-])c1ccc(-c2ccccc2Cl)c([N+](=O)[O-])c1
inactive: [4] 91 % of control | [5] 91 % of control | [6] 97 % of control

CCC(C)C(NC(=O)CN)C(=O)O (stereo not given) (H-Gly-[ξI]-OH)
inactive: [19] 97 % of control | [7] 98 % of control | [20] 102 % of control | [21] 98 % of control | [22] 97 % of control | [23] 91 % of control

N#Cc1c(N)sc(N)c1C#N
inactive: [13] 96 % of control | [14] 100 % of control | [15] 89 % of control | [16] 98 % of control | [17] 96 % of control | [18] 98 % of control

COc1cc(C(=O)NCCBr)cc(OC)c1OC
inactive: [7] 107 % of control | [21] 108 % of control | [23] 103 % of control

O=C1C(=O)c2ccccc2C(O)=C1C(C1=C(O)c2ccccc2C(=O)C1=O)c1ccc(Cl)c(Cl)c1
inactive: dose: 75.0 mg/kg/injection, schedule: Q01DX001 (ip), vehicle: carboxymethylcellulose (CMC) 94 % of control

COCC1OC(OC(=O)c2ccccc2)C(OC(=O)c2ccccc2)C(OC(=O)c2ccccc2)C1OC (stereo not given)
inactive: dose: 12.5 mg/kg/injection, schedule: Q01DX009 (ip), vehicle: saline with Tween-80 97 % of control | dose: 25.0 mg/kg/injection, schedule: Q01DX009 (ip), vehicle: saline with Tween-80 95 % of control | [10] 93 % of control

CCOC(=O)/C(N=O)=C(/O)c1ccncc1
inactive: [14] 96 % of control | [16] 102 % of control

COc1cccc(OC)c1OS(=O)(=O)c1ccc(COc2ccc([N+](=O)[O-])cc2Cl)cc1
inactive: [14] 98 % of control | [16] 90 % of control | [18] 90 % of control

Oc1ccc(-c2ccccc2)cc1Br
inactive: [11] 101 % of control | [12] 111 % of control

CCCC(P(c1ccccc1)c1ccccc1)P(=O)(c1ccccc1)c1ccccc1 (stereo not given)
inactive: [19] 94 % of control | [20] 94 % of control | [22] 94 % of control

CC(=O)NC1CCC(Cc2ccccc2)CC1 (stereo not given)
inactive: [19] 97 % of control | [20] 90 % of control | [22] 116 % of control

CCCCCCCC[n+]1cccc(C(N)=O)c1
inactive: [11] 98 % of control | [12] 89 % of control

CCC[n+]1ccc(C#N)cc1
inactive: [24] 106 % of control | dose: 150.0 mg/kg/injection, schedule: Q01DX001 (ip), vehicle: saline 89 % of control

Clc1ccc(Cl)nn1
inactive: dose: 100.0 mg/kg/injection, schedule: Q04DX002 (ip), vehicle: saline 102 % of control | dose: 200.0 mg/kg/injection, schedule: Q04DX002 (ip), vehicle: saline 87 % of control | dose: 400.0 mg/kg/injection, schedule: Q04DX002 (ip), vehicle: saline 87 % of control

Cc1nc(N)[nH]c(=O)c1CCCCc1ccccc1
inactive: dose: 50.0 mg/kg/injection, schedule: Q01DX009 (ip), vehicle: Klucel (hydroxypropylcellulose) (HPC) 98 % of control | [13] 102 % of control | [15] 95 % of control

CCCC(C)C1(CC)C(=O)NC(=O)NC1=O (stereo not given)
inactive: dose: 20.0 mg/kg/injection, schedule: Q01DX001 (ip), vehicle: saline 97 % of control | dose: 20.0 mg/kg/injection, schedule: Q04DX003 (ip), vehicle: saline 93 % of control | dose: 40.0 mg/kg/injection, schedule: Q01DX001 (ip), vehicle: saline 103 % of control | dose: 40.0 mg/kg/injection, schedule: Q04DX003 (ip), vehicle: saline 98 % of control | [24] 107 % of control | dose: 80.0 mg/kg/injection, schedule: Q01DX001 (ip), vehicle: saline 108 % of control | dose: 80.0 mg/kg/injection, schedule: Q04DX003 (ip), vehicle: saline 97 % of control | dose: 160.0 mg/kg/injection, schedule: Q01DX001 (ip), vehicle: saline 108 % of control

Cc1ccc(NC(=S)Nc2ccc(C(C)C)cc2)c(C)c1
inactive: [1] 118 % of control | [2] 103 % of control | [3] 100 % of control

CCOC(=O)C1C(CCC#N)C(=O)CCC1(C#N)c1ccccc1 (stereo not given)
inactive: dose: 100.0 mg/kg/injection, schedule: Q04DX003 (ip), vehicle: acetone 98 % of control | dose: 200.0 mg/kg/injection, schedule: Q04DX003 (ip), vehicle: acetone 95 % of control | dose: 400.0 mg/kg/injection, schedule: Q04DX003 (ip), vehicle: acetone 98 % of control

Nc1nc(SCc2ccccc2)c(N)c(=S)[nH]1
inactive: dose: 100.0 mg/kg/injection, schedule: Q01DX001 (ip), vehicle: Klucel (hydroxypropylcellulose) (HPC) 95 % of control | dose: 200.0 mg/kg/injection, schedule: Q01DX001 (ip), vehicle: Klucel (hydroxypropylcellulose) (HPC) 90 % of control | dose: 400.0 mg/kg/injection, schedule: Q01DX001 (ip), vehicle: Klucel (hydroxypropylcellulose) (HPC) 93 % of control

CN(C)C(=S)SN(C)C(=O)Nc1ccccc1
inactive: [14] 105 % of control | [16] 109 % of control | [18] 107 % of control

Cc1cc(N)ccc1S(=O)(=O)F
inactive: [11] 103 % of control | [12] 103 % of control | dose: 400.0 mg/kg/injection, schedule: Q04DX003 (ip), vehicle: saline with Tween-80 100 % of control
